Literature values as cited in patent publication US20190091218A1 (priority 2016, published 2019).
Like-named read-outs stand apart in the source and are kept apart here. One block for each molecule: values may come before it.

Key:
H1 receptor = H1 receptor (Homo sapiens, UniProt P35367); conditions: acidic pH
[1] = system: histamine induced wheal and flare
[2] = not given; remark: listed apart in the source
[3] = standard 10 mg oral dose

Chain of H1 receptor (P35367 whole entry): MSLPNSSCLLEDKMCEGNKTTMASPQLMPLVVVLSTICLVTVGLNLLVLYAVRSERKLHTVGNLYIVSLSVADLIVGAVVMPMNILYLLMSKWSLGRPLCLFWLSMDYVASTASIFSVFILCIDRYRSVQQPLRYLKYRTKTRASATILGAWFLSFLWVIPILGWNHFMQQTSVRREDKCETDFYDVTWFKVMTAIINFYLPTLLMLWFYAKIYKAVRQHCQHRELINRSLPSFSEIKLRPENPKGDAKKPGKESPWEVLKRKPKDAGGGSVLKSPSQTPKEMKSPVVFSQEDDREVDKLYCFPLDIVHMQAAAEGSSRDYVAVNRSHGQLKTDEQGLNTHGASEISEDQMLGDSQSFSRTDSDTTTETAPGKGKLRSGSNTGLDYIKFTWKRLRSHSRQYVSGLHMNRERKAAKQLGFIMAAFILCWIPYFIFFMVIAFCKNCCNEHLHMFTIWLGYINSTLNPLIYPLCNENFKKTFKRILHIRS

Structure (SMILES): O=C(O)COCCN1CCN([C@H](c2ccccc2)c2ccc(Cl)cc2)CC1 [levocetirizine]
receptor affinity over first generation mepyramine (H1 receptor): 5 × | potency among modern generation antihistamines ([1]; histamine induced wheal and flare data): most potent of the five modern generation antihistamines | effectiveness versus fexofenadine ([1]; levocetirizine 5 mg per day vs fexofenadine 180 mg per day): more effective than fexofenadine | dose that can be safely administered (studies in humans): up to 30 mg/day | levels of HRV-induced increases in ICAM-1 (human rhinovirus (HRV); added before, after, or at the time of the HRV infection): reduced | HRV-induced ICAM-1, cytokine expression, and viral replication (human rhinovirus (HRV); airway epithelial cells from nose and lung): inhibit | time to steady state level ([2]; in vivo): 40 h | peak concentration ([2]; repeated 5 mg once daily oral dose): 308 ng/mL | peak concentration ([2]; single 5 mg oral dose): 270 ng/mL

mean AUC [3]: 2689 ng/h/mL
Structure (SMILES): CC(C)(O)c1ccccc1CC[C@@H](SCC1(CC(=O)O)CC1)c1cccc(/C=C/c2ccc3ccc(Cl)cc3n2)c1 [montelukast]
dose administered without clinically relevant side effects (adult patients, 22 weeks): up to 200 mg/day | dose administered without clinically relevant side effects (short-term studies, approximately one week): up to 900 mg/day
